Experimental data published in patent US20240382498A1, “NOVEL INHIBITOR OF HYPE-MEDIATED AMPYLATION” (Purdue Research Foundation, priority 2023, published 2024).

Experiments:
E234G HYPE = biological target: T1, E234G HYPE (Homo sapiens, UniProt Q9BVA6, E234G); experiment: Radioactive in-gel autoAMPylation assay with E234G HYPE and α-32P-ATP; type: biochemical; conditions: 10 μM compound
T1 construct: Δ102 (aa 103-458) HYPE constructs (WT, E234G, and E234G/H363A); His6-SUMO (cleaved yes); made in house; host or cells: E. coli BL21-DE3-RILP
T1 sequence (Q9BVA6 103-458 E234G): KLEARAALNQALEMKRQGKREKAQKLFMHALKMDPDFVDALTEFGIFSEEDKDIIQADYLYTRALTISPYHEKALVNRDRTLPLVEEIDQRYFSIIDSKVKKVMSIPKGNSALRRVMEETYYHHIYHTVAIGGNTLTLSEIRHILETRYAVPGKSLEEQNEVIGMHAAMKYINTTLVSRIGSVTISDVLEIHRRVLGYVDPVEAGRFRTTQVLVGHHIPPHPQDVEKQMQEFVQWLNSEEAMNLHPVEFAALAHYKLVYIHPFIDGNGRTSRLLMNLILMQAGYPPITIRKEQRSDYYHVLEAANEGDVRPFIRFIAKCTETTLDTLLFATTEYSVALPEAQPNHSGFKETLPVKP
Procedure: 1 μM of HYPE (final concentration) and (where specified) 5 μM of T229A BiP (final concentration) were preincubated with 10 μM DMSO-dissolved compound (final concentration) or equivalent volume of 100% DMSO at room temperature for 10 min in HTS Buffer. Reactions were run for 10 min at 30° C. and began with the addition of 0.01 μCi/μL α-32P-ATP (final concentration). All reactions were performed according to our previously described protocol for in vitro radioactive AMPylation assays19. Where specified, 5 μM of T229A BiP (final concentration) was added to reactions before the addition of compound.

HEK 293 cells = experiment: MTT cell viability assay, HEK 293; type: cell-based, human; conditions: HEK 293, 10 μM, 48 hr
Procedure: The cell lines were procured from ATCC (American Type Culture Collection) and cultured in DMEM (Dulbecco's Modified Eagle Medium) supplemented with 10% FBS (fetal bovine serum) without antibiotics. Cells were grown and maintained in a humidified incubator at 37° C. with 5% CO2. For the MTT assay, cells were trypsinized and harvested at ˜80-90% confluency and seeded in 96 well plates at a density of 1×10^4 cells per well. The seeded cells were incubated overnight and treated with 1 μM, 3 μM, 5 μM, 7 μM, 10 μM, 20 μM, 30 μM or 50 μM (final concentration) of DMSO-dissolved compound for 48 hr. To rule out vehicle induced toxicity, only 0.5% of final DMSO concentration was added to the cells. Post-incubation, the compound treatment was removed and replaced with 0.5 mg/ml (final concentration) of freshly prepared MTT solution. After incubating for 3.5 hr at 37° C., 5% CO2 humidified incubator, MTT was carefully removed without aspirating the formazan crystals and replaced with equivalent volume of DMSO to dissolve the formazan crystals. The plates were then read using a multi-plate reader at 570 nm. The absorbance was recorded and % viability was calculated according to the following equation:
[formula] • where, Abt is the absorbance of compound treated cells and Abc is the absorbance of control cells.

`c1cn(-c2ccc(-c3nnc(-c4ccoc4)o3)cn2)cn1` [Compound I2.10] was tested, and the “inhibition of E234G HYPE autoAMPylation in gel” value (E234G HYPE) was “bioactivity of I2.10 is mirrored” and the cell viability (HEK 293 cells) was ~80%.
